Reference: the CheMixHub viscosity set

Assay: xn = mol fraction of the nth substance listed

CC(C)(C)O + OCC(O)CO
viscosity [mPa·s], 101.33 kPa
Conditions | x2 = 0.1029 | x2 = 0.1996 | x2 = 0.3009 | x2 = 0.4015 | x2 = 0.5001 | x2 = 0.5995 | x2 = 0.6993 | x2 = 0.7992 | x2 = 0.8995
308.15 K | 5.962 | 10.24 | 19.34 | 36.09 | 65.66 | 105.9 | 154.9 | 211.7 | 276
318.15 K | 4.1 | 6.761 | 12.32 | 21.85 | 37.6 | 58.03 | 83.42 | 108.5 | 132.4

CCNCC + CCCCCC
viscosity [mPa·s], 101 kPa
Conditions | x2 = 0.0897 | x2 = 0.1836 | x2 = 0.2802 | x2 = 0.3738 | x2 = 0.474 | x2 = 0.5744 | x2 = 0.6849 | x2 = 0.7818 | x2 = 0.8954
298.15 K | 0.284 | 0.281 | 0.28 | 0.278 | 0.278 | 0.279 | 0.281 | 0.283 | 0.287
313.15 K | 0.254 | 0.251 | 0.25 | 0.249 | 0.25 | 0.25 | 0.251 | 0.254 | 0.257

CC(C)(C)O + CN1CCCC1=O
298.15 K, 101 kPa
Conditions | viscosity [mPa·s]
x2 = 0.0522 | 4.027
x2 = 0.1107 | 3.478
x2 = 0.2046 | 2.892
x2 = 0.2528 | 2.676
x2 = 0.3034 | 2.494
x2 = 0.3557 | 2.342
x2 = 0.4023 | 2.234
x2 = 0.4562 | 2.13
x2 = 0.4773 | 2.095
x2 = 0.4998 | 2.064
x2 = 0.5605 | 1.981
x2 = 0.5966 | 1.942
x2 = 0.6533 | 1.885
x2 = 0.7046 | 1.842
x2 = 0.7461 | 1.809
x2 = 0.8029 | 1.775
x2 = 0.8498 | 1.745
x2 = 0.9007 | 1.719
x2 = 0.9581 | 1.688

CNC + CS(C)=O
303.15 K, 101 kPa
Conditions | viscosity [mPa·s]
x2 = 0.061 | 2.067
x2 = 0.1207 | 2.133
x2 = 0.2361 | 2.207
x2 = 0.4518 | 2.373
x2 = 0.6496 | 2.207
x2 = 0.8318 | 1.939

COCCOCCOCCOC + CC1COC(=O)O1
298.15 K, 101.33 kPa
Conditions | viscosity [mPa·s]
x1 = 0.0049 | 2.492
x1 = 0.0113 | 2.496
x1 = 0.0249 | 2.504
x1 = 0.0352 | 2.516
x1 = 0.0525 | 2.523
x1 = 0.0833 | 2.536
x1 = 0.1358 | 2.56
x1 = 0.1928 | 2.568
x1 = 0.2559 | 2.561
x1 = 0.3083 | 2.543
x1 = 0.3356 | 2.539
x1 = 0.393 | 2.494
x1 = 0.466 | 2.444
x1 = 0.4902 | 2.428
x1 = 0.5272 | 2.402
x1 = 0.5728 | 2.361
x1 = 0.6242 | 2.308
x1 = 0.6786 | 2.254
x1 = 0.7038 | 2.227
x1 = 0.8165 | 2.127
x1 = 0.8598 | 2.088
x1 = 0.8959 | 2.047
x1 = 0.9347 | 2.021
x1 = 0.964 | 1.99
